Measurements from patent US20250154180A1, “CRK-LIKE (CRKL) ADAPTOR PROTEIN INHIBITORS AND METHODS OF MAKING AND USING THE SAME” (Rutgers, The State University of New Jersey, priority 2022, published 2025).
Read-outs that look alike come from different tables or passages of the source.

Legend:
MDA-MB-231 cells = assay: XTT cell viability, MDA-MB-231; type: cell-based; conditions: 24 and 48 hours
Experimental: (§1) FIGS. 8A-8C show results using MDA-MB-231 cells (FIG. 8A) or BXPC3 cells (FIG. 8B), wherein the cells were treated with 5 μM of NC5, Compound III (referred to as “NC5-140-1” in FIGS. 8A-8C), and Compound I (referred to as “NC5-140-2” in FIGS. 8A-8C) for 24-48 hours, wherein the XTT assay was used to determine cell viability. The symbol indicates the significance of NC5 vs. Compounds I and/or III; *p<0.05. Data represent mean±SEM.
(§2) Compound embodiments, compound III and compound I, were also made and evaluated. TNBC cells and PDAC cells were treated with a serial dose of original NC5 and modified NC5 derivatives for 24 and 48 hours. The cell viability will be measured by XTT assay. […] Compound III is referred to as “NC5-140-1” and Compound I is referred to as “NC5-140-2” in FIGS. 8A-8C.

BXPC3 cells = assay: XTT cell viability, BXPC3; type: cell-based; conditions: 24 and 48 hours
Experimental: as §1, §2

Sk-Hep1 cells = assay: Growth inhibition of Sk-Hep1 cells (cell culture images); type: cell-based; conditions: 5 μM, 24 hours
Sk-Hep1 tumor = assay: HCC Sk-Hep1 xenograft model; type: in vivo, NSG mice; conditions: four-group study, 5.0 μg/g oral gavage
From the text: To further test whether the tumor growth inhibition effect of NC5 applied to other solid tumors, the HCC-Sk-Hep1cell line and PDAC-BXPC3 cell line xenograft models were used. Subcutaneous injection of 1.5×10^6 SK-Hep1 or BXPC3 cells in NSG mice, Six-ten days after tumor cell injection, the palpable tumor in NSG mice was confirmed.
(§3) To test the effects of the disclosed compounds on the xenograft mouse models, the HCC-Sk-Hep1 cell line xenograft model in NSG mice and 4T1-Luc orthotopic syngeneic breast tumor model in Balb/c mice was used. After confirming the palpable tumor in NSG or Balb/c mice. […] Compound III is referred to as “NC5-140-1” and Compound I is referred to as “NC5-140-2” in FIGS. 11A-11C.

4T1 breast tumor = assay: 4T1-Luc orthotopic syngeneic breast tumor model; type: in vivo, Balb/c mice; conditions: 5.0 μg/g oral gavage
From the text: Syngeneic orthotopic 4T1 breast tumor-bearing mouse model was established by inoculating 5×10^4 4T1-Luc cells mixed with Matrigel were into the left inguinal fat pad of Balb/c mice from Jackson Laboratories. This orthotopic syngeneic breast tumor model is a tool for preclinical testing of anti-cancer drugs or immunotherapy that require an intact immune system to elicit activity.
as §3

Thermodynamic solubility = type: physicochemical; conditions: thermodynamic from solid
Experimental: In this example, solubility measurement assays were performed using a phosphate buffer (also referred to as “PB”) system and a water system to evaluate thermodynamic solubility. The PB system was at a pH of 7.4 to mimic in vivo environments. For the PB system, the values were determined to be NC5: Thermodynamic Solubility pH=7.4<0.42 μg/mL; Compound III: Thermodynamic Solubility pH=7.4<0.48 μg/mL; and Compound I: Thermodynamic Solubility pH=7.4<0.48 μg/mL. Results for the water assay were as follows: NC5: Thermodynamic Solubility Water<0.42 μg/mL; Compound III: Thermodynamic Solubility Water<0.48 μg/mL; and Compound I: Thermodynamic Solubility Water<0.48 μg/mL.

[1] = tested on: pCrkL (T207) in Sk-Hep1 cells; assay: Flow cytometry of H2O2-induced pCrkL, Sk-Hep1; type: cell-based; conditions: 50 uM H2O2 1 hour, then 10 uM compound 24 hours
Experimental: In this example, Sk-Hep1 cells were pretreated with 50 uM H2O2 for 1 hour to induce activation of pCrkL and were then incubated with 10 uM NC5 or Compound III for 24 hours. pCrkL (T207) expression was determined by flow cytometry.

[2] = tested on: PBNK cells killing activity towards MDA-MB-231; assay: Cr51 release assay, PBNK killing of MDA-MB-231; type: cell-based; conditions: 1 uM overnight
Experimental: (§4) PBNK cells were incubated with 1 uM NC5 or Compound III overnight, then cells were harvested for Cr51 release assay to check cell cytotoxicity. […] The star symbol indicates the significance of vehicle control vs. NC5 of the indicated E:T ratios. *p<0.05, **p<0.01, n=3.

[3] = tested on: PBNK cells killing activity towards SK-Hep1; assay: Cr51 release assay, PBNK killing of SK-Hep1; type: cell-based; conditions: 1 uM overnight
Experimental: as §4

AML cell line (MoLM-13) = assay: CCK-8 cell viability, MoLM-13; type: cell-based, human; conditions: 1 uM, 5 uM, 10 uM; 48 hours
Experimental: In this example, activities of NC5, Compound III, and the known chemotherapeutic, Cytarabine, were evaluated in the AML cell line (MoLM-13). MoLM-13 cells were collected and seeded at 5,000 cells/well in 96-well plates. The cells were incubated for 24 hours before the addition of either DMSO control or drug at various concentrations. After an additional 48 hours of incubation, 3 μL of CCK-8 was added to every well and incubated at 37° C. for 3 hours. Absorbance was measured at 460 nm in a plate reader. […] The related absorbance was normalized and plotted as line graphs. p-values were determined through two tails student t-tests (*=p<0.5, **=p<0.01, ***=p<0.001).

HepG2 cell line = assay: CCK-8 cell viability, HepG2; type: cell-based; conditions: 1 uM, 5 uM, 10 uM; 48 hours
Experimental: (§5) In this example, activities of NC5, Compound III, and the known chemotherapeutic, Sorafenib, were evaluated in HepG2, SKHep1, Huh7, and MDA468 cell lines. Cells from each cell line were collected and seeded at 5,000 cells/well in 96-well plates. The cells were incubated for 24 hours before the addition of either DMSO control or drug at various concentrations. After an additional 48 hours of incubation, 3 μL of CCK-8 was added to every well and incubated at 37° C. for 3 hours. Absorbance was measured at 460 nm in a plate reader. Cells from each cell line were treated with NC5 and Compound III at various concentrations (1 uM, 5 uM, 10 uM). The related absorbance was normalized and plotted as line graphs. p-values were determined through two tails student t-tests (*=p<0.5, **=p<0.01, ***=p<0.001).

SKHep1 cell line = assay: CCK-8 cell viability, SKHep1; type: cell-based; conditions: 1 uM, 5 uM, 10 uM; 48 hours
Experimental: as §5

Huh7 cell line = assay: CCK-8 cell viability, Huh7; type: cell-based; conditions: 1 uM, 5 uM, 10 uM; 48 hours
Experimental: as §5

MDA468 cell line = assay: CCK-8 cell viability, MDA468; type: cell-based; conditions: 1 uM, 5 uM, 10 uM; 48 hours
Experimental: as §5

## CC(C)=CCc1c2c(c3occ(-c4ccc5c(c4)OS(=O)(=O)O5)c(=O)c3c1O)C=CC(C)(C)O2 [Compound III]
MDA-MB-231 cells
  toxic effect compared with NC5 (XTT viability): comparable toxic effect as NC5
BXPC3 cells
  toxic effect compared with NC5 (XTT viability): better toxic effect than NC5
Sk-Hep1 cells
  toxic effect compared with NC5 (growth inhibition): better toxic effect than NC5
Sk-Hep1 tumor
  tumor growth: inhibit tumor growth
Sk-Hep1 tumor; vehicle 26 days
  median survival: 34.5 days
4T1 breast tumor
  tumor growth: steady growth inhibition
4T1 breast tumor; vehicle 25 days
  median survival: 39.5 days
Thermodynamic solubility; aqueous buffer, phosphate buffer (PB) system, pH 7.4, read-out: Thermodynamic Solubility pH=7.4
  solubility thermodynamic: < 0.48 µg/mL
Thermodynamic solubility; water system, read-out: Thermodynamic Solubility Water
  solubility thermodynamic: < 0.48 µg/mL
[1]
  H2O2 induced pCrkL protein levels: inhibited H2O2 induced pCrkL protein levels
[2]
  PBNK cells killing activity (Cr51 release): increased PBNK cells killing activity
[3]
  PBNK cells killing activity (Cr51 release): increased PBNK cells killing activity
AML cell line (MoLM-13)
  cell viability (CCK-8): decrease cell viability significantly
HepG2 cell line
  cell viability (CCK-8): decreased cell viability significantly
SKHep1 cell line
  cell viability (CCK-8): decreased cell viability significantly
Huh7 cell line
  cell viability (CCK-8): decreased cell viability significantly
MDA468 cell line
  cell viability (CCK-8): decreased cell viability significantly
